Experimental data from ChEMBL document CHEMBL4602678, “Identification of Holrhizins E-Q Reveals the Diversity of Nonribosomal Lipopeptides in Paraburkholderia rhizoxinica” (J Nat Prod, 2020).
Where a SMILES comes first, the peptide text is derived from it. The star is where a group is joined. Octanoyl = CCCCCCCC(=O)*; Hexanoyl = CCCCCC(=O)*

Columns and labels:
[1] = Cytotoxicity against human 2B cells incubated for 2 days by MTT assay; type: cell-based; settings: 48 h
A549 = experiment: Cytotoxicity against human A549 cells incubated for 2 days by MTT assay; type: functional, cell-based; settings: A549, 48 h
Escherichia coli = experiment: Antimicrobial activity against Escherichia coli ATCC 35218 incubated for 24 hrs by Kirby-Bauer disk diffusion method; type: functional; settings: ATCC 35218, 24 h
Candida albicans = experiment: Antimicrobial activity against Candida albicans incubated for 24 hrs by Kirby-Bauer disk diffusion method; type: functional
K562 = experiment: Cytotoxicity against human K562 cells incubated for 2 days by MTT assay; type: functional, cell-based; settings: K562, 48 h
HCT-116 = experiment: Cytotoxicity against human HCT116 cells incubated for 2 days by MTT assay; type: functional, cell-based; settings: HCT-116, 48 h
Aspergillus fumigatus = experiment: Antimicrobial activity against Aspergillus fumigatus incubated for 24 hrs by Kirby-Bauer disk diffusion method; type: functional
SGC-7901 = experiment: Cytotoxicity against human SGC7901 cells incubated for 2 days by MTT assay; type: functional, cell-based; settings: SGC-7901, 48 h
[2] = Cytotoxicity against human Kasumi cells incubated for 2 days by MTT assay; type: functional, cell-based; settings: 48 h
HepG2 = experiment: Cytotoxicity against human HepG2 cells incubated for 2 days by MTT assay; type: functional, cell-based; settings: HepG2, 48 h
MDA-MB-231 = experiment: Cytotoxicity against human MDA-MB-231 cells incubated for 2 days by MTT assay; type: functional, cell-based; settings: MDA-MB-231, 48 h
Pseudomonas aeruginosa = experiment: Antimicrobial activity against Pseudomonas aeruginosa […] ATCC 27853 incubated for 24 hrs by Kirby-Bauer disk diffusion method; type: functional
MCF7 = experiment: Cytotoxicity against human MCF7 cells incubated for 2 days by MTT assay; type: functional, cell-based; settings: MCF7, 48 h
Rhizoctonia solani = experiment: Antimicrobial activity against Rhizoctonia solani incubated for 24 hrs by Kirby-Bauer disk diffusion method; type: functional
Staphylococcus aureus = experiment: Antimicrobial activity against Staphylococcus aureus ATCC 29213 incubated for 24 hrs by Kirby-Bauer disk diffusion method; type: functional; settings: ATCC 29213, 24 h
Bacillus subtilis = experiment: Antimicrobial activity against Bacillus subtilis ATCC 6633 incubated for 24 hrs by Kirby-Bauer disk diffusion method; type: functional; settings: ATCC 6633, 24 h

Row | Structure (SMILES) | IC50 [1] | IC50 (A549) | MIC (Escherichia coli) | MIC (Candida albicans) | IC50 (K562) | IC50 (HCT-116) | MIC (Aspergillus fumigatus) | IC50 (SGC-7901) | IC50 [2] | IC50 (HepG2) | IC50 (MDA-MB-231) | MIC (Pseudomonas aeruginosa) | IC50 (MCF7) | MIC (Rhizoctonia solani) | MIC (Staphylococcus aureus) | MIC (Bacillus subtilis)
1 | CCCCCC(=O)N[C@H](C(=O)N[C@@H](Cc1ccccc1)C(=O)N[C@@H](CCC(=O)O)C(=O)N[C@H](C(=O)N[C@@H](C)C(=O)N[C@H](C(=O)O)[C@@H](C)CC)[C@@H](C)CC)C(C)C (Hexanoyl-VFEIAI-OH) | > 40 µM | > 40 µM | > 100 µM | > 100 µM | > 40 µM | > 40 µM | > 100 µM | > 40 µM | > 40 µM | > 40 µM | > 40 µM | > 100 µM | > 40 µM | > 100 µM | > 100 µM | > 100 µM
2 | CCCCCC(=O)N[C@H](C(=O)N[C@@H](Cc1ccccc1)C(=O)N[C@@H](CCC(=O)O)C(=O)N[C@H](C(=O)N[C@@H](C)C(=O)N[C@@H](CC(C)C)C(=O)O)[C@@H](C)CC)C(C)C (Hexanoyl-VFEIAL-OH) | > 40 µM | > 40 µM | > 100 µM | > 100 µM | > 40 µM | > 40 µM | > 100 µM | > 40 µM | > 40 µM | > 40 µM | > 40 µM | > 100 µM | > 40 µM | > 100 µM | > 100 µM | > 100 µM
3 | CCCCCC(=O)N[C@H](C(=O)N[C@@H](Cc1ccccc1)C(=O)N[C@@H](CCC(=O)O)C(=O)N[C@@H](CC(C)C)C(=O)N[C@@H](C)C(=O)N[C@H](C(=O)O)[C@@H](C)CC)C(C)C (Hexanoyl-VFELAI-OH) | > 40 µM | > 40 µM | > 100 µM | > 100 µM | > 40 µM | > 40 µM | > 100 µM | > 40 µM | > 40 µM | > 40 µM | > 40 µM | > 100 µM | > 40 µM | > 100 µM | > 100 µM | > 100 µM
4 | CCCCCC(=O)N[C@H](C(=O)N[C@@H](Cc1ccccc1)C(=O)N[C@@H](CCC(=O)O)C(=O)N[C@@H](CC(C)C)C(=O)N[C@@H](C)C(=O)N[C@@H](CC(C)C)C(=O)O)C(C)C (Hexanoyl-VFELAL-OH) | > 40 µM | > 40 µM | > 100 µM | > 100 µM | > 40 µM | > 40 µM | > 100 µM | > 40 µM | > 40 µM | > 40 µM | > 40 µM | > 100 µM | > 40 µM | > 100 µM | > 100 µM | > 100 µM
5 | CCCCCC(=O)N[C@H](C(=O)N[C@@H](Cc1ccccc1)C(=O)O)C(C)C (Hexanoyl-Val-Phe-OH) | > 40 µM | > 40 µM | > 100 µM | > 100 µM | > 40 µM | > 40 µM | > 100 µM | > 40 µM | > 40 µM | > 40 µM | > 40 µM | > 100 µM | > 40 µM | > 100 µM | > 100 µM | > 100 µM
6 | CCCCCCCC(=O)N[C@H](C(=O)N[C@@H](Cc1ccccc1)C(=O)N[C@@H](CCC(=O)O)C(=O)N[C@H](C(=O)O)[C@@H](C)CC)C(C)C (Octanoyl-VFEI-OH) | > 40 µM | > 40 µM | > 100 µM | > 100 µM | > 40 µM | > 40 µM | > 100 µM | > 40 µM | > 40 µM | > 40 µM | > 40 µM | > 100 µM | > 40 µM | > 100 µM | > 100 µM | > 100 µM
7 | CCCCCCCC(=O)N[C@H](C(=O)N[C@@H](Cc1ccccc1)C(=O)N[C@@H](CCC(=O)O)C(=O)N[C@H](C(=O)N[C@@H](C)C(=O)N[C@H](C(=O)O)[C@@H](C)CC)[C@@H](C)CC)C(C)C (Octanoyl-VFEIAI-OH) | > 40 µM | > 40 µM | > 100 µM | > 100 µM | > 40 µM | > 40 µM | > 100 µM | > 40 µM | > 40 µM | > 40 µM | > 40 µM | > 100 µM | > 40 µM | > 100 µM | > 100 µM | > 100 µM
8 | CCCCCCCC(=O)N[C@H](C(=O)N[C@@H](Cc1ccccc1)C(=O)N[C@@H](CCC(=O)O)C(=O)N[C@H](C(=O)N[C@@H](C)C(=O)N[C@@H](CC(C)C)C(=O)O)[C@@H](C)CC)C(C)C (Octanoyl-VFEIAL-OH) | > 40 µM | > 40 µM | > 100 µM | > 100 µM | > 40 µM | > 40 µM | > 100 µM | > 40 µM | > 40 µM | > 40 µM | > 40 µM | > 100 µM | > 40 µM | > 100 µM | > 100 µM | > 100 µM
9 | CCCCCCCC(=O)N[C@H](C(=O)N[C@@H](Cc1ccccc1)C(=O)N[C@@H](CCC(=O)O)C(=O)N[C@H](C(=O)N[C@@H](C)C(=O)N[C@H](C(=O)O)C(C)C)[C@@H](C)CC)C(C)C (Octanoyl-VFEIAV-OH) | > 40 µM | > 40 µM | > 100 µM | > 100 µM | > 40 µM | > 40 µM | > 100 µM | > 40 µM | > 40 µM | > 40 µM | > 40 µM | > 100 µM | > 40 µM | > 100 µM | > 100 µM | > 100 µM
10 | CCCCCCCC(=O)N[C@H](C(=O)N[C@@H](Cc1ccccc1)C(=O)N[C@@H](CCC(=O)O)C(=O)N[C@H](C(=O)NCC(=O)N[C@H](C(=O)O)[C@@H](C)CC)[C@@H](C)CC)C(C)C (Octanoyl-VFEIGI-OH) | > 40 µM | > 40 µM | > 100 µM | > 100 µM | > 40 µM | > 40 µM | > 100 µM | > 40 µM | > 40 µM | > 40 µM | > 40 µM | > 100 µM | > 40 µM | > 100 µM | > 100 µM | > 100 µM
11 | CCCCCCCC(=O)N[C@H](C(=O)N[C@@H](Cc1ccccc1)C(=O)N[C@@H](CCC(=O)O)C(=O)N[C@@H](CC(C)C)C(=O)O)C(C)C (Octanoyl-VFEL-OH) | > 40 µM | > 40 µM | > 100 µM | > 100 µM | > 40 µM | > 40 µM | > 100 µM | > 40 µM | > 40 µM | > 40 µM | > 40 µM | > 100 µM | > 40 µM | > 100 µM | > 100 µM | > 100 µM
12 | CCCCCCCC(=O)N[C@H](C(=O)N[C@@H](Cc1ccccc1)C(=O)N[C@@H](CCC(=O)O)C(=O)N[C@@H](CC(C)C)C(=O)N[C@@H](C)C(=O)N[C@H](C(=O)O)[C@@H](C)CC)C(C)C (Octanoyl-VFELAI-OH) | > 40 µM | > 40 µM | > 100 µM | > 100 µM | > 40 µM | > 40 µM | > 100 µM | > 40 µM | > 40 µM | > 40 µM | > 40 µM | > 100 µM | > 40 µM | > 100 µM | > 100 µM | > 100 µM
13 | CCCCCCCC(=O)N[C@H](C(=O)N[C@@H](Cc1ccccc1)C(=O)N[C@@H](CCC(=O)O)C(=O)N[C@@H](CC(C)C)C(=O)N[C@@H](C)C(=O)N[C@@H](CC(C)C)C(=O)O)C(C)C (Octanoyl-VFELAL-OH) | > 40 µM | > 40 µM | > 100 µM | > 100 µM | > 40 µM | > 40 µM | > 100 µM | > 40 µM | > 40 µM | > 40 µM | > 40 µM | > 100 µM | > 40 µM | > 100 µM | > 100 µM | > 100 µM
14 | CCCCCCCC(=O)N[C@H](C(=O)N[C@@H](Cc1ccccc1)C(=O)N[C@@H](CCC(=O)O)C(=O)N[C@@H](CC(C)C)C(=O)N[C@@H](C)C(=O)N[C@H](C(=O)O)C(C)C)C(C)C (Octanoyl-VFELAV-OH) | > 40 µM | > 40 µM | > 100 µM | > 100 µM | > 40 µM | > 40 µM | > 100 µM | > 40 µM | > 40 µM | > 40 µM | > 40 µM | > 100 µM | > 40 µM | > 100 µM | > 100 µM | > 100 µM
15 | CCCCCCCC(=O)N[C@H](C(=O)N[C@@H](Cc1ccccc1)C(=O)O)C(C)C (Octanoyl-Val-Phe-OH) | > 40 µM | > 40 µM | > 100 µM | > 100 µM | > 40 µM | > 40 µM | > 100 µM | > 40 µM | > 40 µM | > 40 µM | > 40 µM | > 100 µM | > 40 µM | > 100 µM | > 100 µM | > 100 µM
